Measurements as given in patent US6787541B1, “Thieno-and furopyrimidine derivatives as A2A-receptor antagonists” (Vernalis Research Limited, priority 1999, dated 2004).

Assays:
[1] = target: T1, human adenosine A2A receptors expressed in HEK-293 cells (Homo sapiens, UniProt P29274); assay: Binding affinities at hA2A receptors, displacement of [3H]-CGS 21680
T1 construct: expressed in transfected cells; host or cells: HEK-293 cells
T1 sequence (P29274 whole entry): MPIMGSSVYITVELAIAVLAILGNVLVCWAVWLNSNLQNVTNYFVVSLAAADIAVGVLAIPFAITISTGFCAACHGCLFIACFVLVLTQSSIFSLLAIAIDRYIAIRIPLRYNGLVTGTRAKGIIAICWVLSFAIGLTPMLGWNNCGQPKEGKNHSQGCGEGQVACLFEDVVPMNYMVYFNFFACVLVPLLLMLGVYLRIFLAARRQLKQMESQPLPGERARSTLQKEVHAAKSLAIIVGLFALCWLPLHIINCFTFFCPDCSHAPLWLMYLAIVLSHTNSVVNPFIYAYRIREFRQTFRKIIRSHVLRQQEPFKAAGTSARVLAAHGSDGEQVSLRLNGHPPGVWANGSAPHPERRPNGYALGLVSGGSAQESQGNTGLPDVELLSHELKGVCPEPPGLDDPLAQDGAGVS

| Molecule | Ki [1] [nM] | melting point |
| --- | --- | --- |
| O=C(c1ccccc1Cl)c1nc(C(F)(F)F)nc2ccsc12 [Example 8, 2-Chlorophenyl 2-trifluoromethylthieno[3,2-d]pyrimidin-4-ylmethanone] | 586 | 122 to 123 °C |
| Cc1ccccc1C(=O)c1nc(C(F)(F)F)nc2ccsc12 [Example 11, 2-Methylphenyl 2-trifluoromethylthieno[3,2-d]pyrimidin-4-ylmethanone] | 330 | 116 to 118 °C |
| O=C(c1ccccc1)c1nc(Cl)nc2ccsc12 [Example 28, 2-Chlorothieno[3,2-d]pyrimidin-4-yl phenylmethanone] | 865 | 162.2 to 163.1 °C |
| Cc1ccc(C(=O)c2nc(C(F)(F)F)nc3ccsc23)cc1 [Example 29, 4-Methylphenyl 2-trifluoromethylthieno[3,2-d]pyrimidin-4-ylmethanone] | 539 | 127 to 129 °C |
| CCc1nc(C(C#N)c2ccccn2)c2sccc2n1 (stereo not drawn) [Example 34, 2-Ethyl-α-(2-pyridyl)thieno[3,2-d]pyrimidine-4-acetonitrile] | 245 | 240 to 242 °C |
| COc1nc(C(=O)c2cccs2)c2scc(C)c2n1 [Example 37, 2-Methoxy-7-methylthieno[3,2-d]pyrimidin-4-yl 2-thienylmethanone] | 361 | 144 to 146 °C |
| CSc1nc(C(=O)c2cccs2)c2scc(C)c2n1 [Example 39, 7-Methyl-2-methylthiothieno[3,2-d]pyrimidin-4-yl 2-thienylmethanone] | 575 | 144 to 166 °C |
| CN(C)c1nc(C(=O)c2ccccc2)c2sccc2n1 [Example 40, 2-Dimethylaminothieno[3,2-d]pyrimidin-4-yl phenylmethanone] | 295 | 116.5 to 117 °C |
| Cc1ccsc1C(=O)c1nc(C(F)(F)F)nc2ccsc12 [Example 42, 3-Methyl-2-thienyl 2-trifluoromethylthieno[3,2-d]pyrimidin-4-ylmethanone] | 26 | 201 to 202 °C |
| O=C(c1cccs1)c1nc(Cl)nc2ccsc12 [Example 44, 2-Chlorothieno[3,2-d]pyrimidin-4-yl 2-thienylmethanone] | 91 | 190.5 to 191 °C |
| CSc1nc(C(=O)c2cccs2)c2sccc2n1 [Example 48, 2-Methylthiothieno[3,2-d]pyrimidin-4-yl 2-thienylmethanone] | 151 | 189.7 to 190.6 °C |
| O=C(c1cc(Br)cs1)c1nc(C(F)(F)F)nc2ccsc12 [Example 57, 4-Bromo-2-thienyl 2-trifluoromethylthieno[3,2-d]pyrimidin-4-ylmethanone] | 800 | 178 to 179 °C |
| CCCc1nc(C(C#N)c2ccccn2)c2sccc2n1 (stereo not drawn) [Example 60, 2-n-Propyl-α-(2-pyridyl)thieno[3,2-d]pyrmidine-4-acetonitrile] | 237 | 185 to 187 °C |
| Cc1nc(C(C#N)c2ccccn2)c2sccc2n1 (stereo not drawn) [Example 64, 2-Methyl-α-(2-pyridyl)thieno[3,2-d]pyrimidine-4-acetonitrile] | 529 | 266 to 269 °C |
| COc1ccc(C(=O)c2nc(C(F)(F)F)nc3ccsc23)s1 [Example 68, 5-Methoxy-2-thienyl 2-trifluoromethylthieno[3,2-d]pyrimidin-4-ylmethanone] | 105 | 160 to 162 °C |
| CCOc1nc(C(=O)c2cccs2)c2sccc2n1 [Example 73, 2-Ethoxythieno[3,2-d]pyrimidin-4-yl 2-thienylmethanone] | 48 | 164.6 to 165.4 °C |
| O=C(c1cccs1)c1nc(N2CCOCC2)nc2ccsc12 [Example 77, 2-(4-Morpholinyl)thieno[3,2-d]pyrimidin-4-yl 2-thienylmethanone] | 97 | 199.9 to 200.5 °C |
| O=C(c1cccs1)c1nc(NCCN2CCOCC2)nc2ccsc12 [Example 78, 2-(2-(4-Morpholinyl)ethylamino)thieno[3,2-d]pyrimidin-4-yl 2-thienylmethanone] | 46 | > 120 °C (dec.) |
| CN(CCO)c1nc(C(=O)c2cccs2)c2sccc2n1 [Example 82, 2-(N-(2-Hydroxyethyl)-N-methylamino)thieno[3,2-d]pyrimidin-4-yl 2-thienylmethanone] | 29 |  |
| C[C@@H](O)CNc1nc(C(=O)c2cccs2)c2sccc2n1 [Example 103, (2R)-2-(2-Hydroxypropylamino)thieno[3,2-d]pyrimidin-4-yl 2-thienylmethanone] | 6 |  |
| O=C(c1cccs1)c1nc(NCCc2cnc[nH]2)nc2ccsc12 [Example 144, 2-(2-(1H-Imidazol-4-yl)ethylamino)thieno[3,2-d]pyrimdin-4-yl 2-thienylmethanone] | 5 |  |
| COC(=O)NCCNc1nc(C(=O)c2cccs2)c2sccc2n1 [Example 155, Methyl (2-(4-(2-thienylcarbonyl)thieno[3,2-d]pyrimidin-2-yl)aminoethyl)carbamate] | 4 |  |
| O=C(NCCNc1nc(C(=O)c2cccs2)c2sccc2n1)OCCCl [Example 158, 2-Chloroethyl (2-(4-(2-thienylcarbonyl)thieno[3,2-d]pyrimidin-2-yl)aminoethyl)carbamate] | 6 |  |
| C=CCNC(=O)NCCNc1nc(C(=O)c2cccs2)c2sccc2n1 [Example 159, N-Allyl-N′-(2-(4-(2-thienylcarbonyl)thieno[3,2-d]pyrimidin-2-yl)aminoethyl)urea] | 8 |  |
| α-(2-Pyridyl-2-trifluoromethylthieno[3,2- d]pyrimidine-4-acetonitrile [Example 18] | 346 |  |
| α-(3-Thienyl-2-trifluoromethylthieno[3,2- d]pyrimidine-4-acetonitrile [Example 17] | 895 |  |

Further molecules by falling Ki [1], results first:

| Ki [1] [nM] | melting point | Molecule |
| --- | --- | --- |
| 863 |  | CN1CCN(c2nc(C(=O)c3cccs3)c3sccc3n2)CC1 [Example 83, 2-(4-Methylpiperazinyl)thieno[3,2-d]pyrimidin-4-yl 2-thienylmethanone] |
| 392 |  | CC(C)(C)OC(=O)N1CCN(c2nc(C(=O)c3cccs3)c3sccc3n2)CC1 [Example 84, Tert-butyl 4-(4-(2-thienylcarbonyl)thieno[3,2-d]pyrimidin-2-yl)piperazinecarboxylate] |
| 309 | 188 to 191 °C | CN(C)c1ccc(C(=O)c2nc(C(F)(F)F)nc3ccsc23)s1 [Example 56, 5-Dimethylamino-2-thienyl 2-trifluoromethylthieno[3,2-d]pyrimidin-4-ylmethanone] |
| 126 | 114.1 to 114.9 °C | O=C(c1ccccc1)c1nc(NCCO)nc2ccsc12 [Example 72, 2-(2-Hydroxyethylamino)thieno[3,2-d]pyrimidin-4-yl phenylmethanone] |
| 101 | 180 to 182 °C | O=C(c1ccc(Br)s1)c1nc(C(F)(F)F)nc2ccsc12 [Example 46, 5-Bromo-2-thienyl 2-trifluoromethylthieno[3,2-d]pyrimidin-4-ylmethanone] |
| 90 | 185 to 186 °C | Cc1cc(C(=O)c2nc(C(F)(F)F)nc3ccsc23)oc1C [Example 74, 4,5-Dimethyl-2-furyl 2-trifluoromethylthieno[3,2-d]pyrimidin-4-ylmethanone] |
| 37 | 122 to 125 °C | CCCc1nc(C(=O)c2cccs2)c2sccc2n1 [Example 63, 2-n-Propylthieno[3,2-d]pyrimidin-4-yl 2-thienylmethanone] |
| 36 | 199.9 to 200.7 °C | CC(C)(C)OC(=O)NCCNc1nc(C(=O)c2cccs2)c2sccc2n1 [Example 54, Tert-butyl (2-(4-(2-thienylcarbonyl)thieno[3,2-d]pyrimidin-2-yl)aminoethyl)carbamate] |
| 31 | 165 to 167 °C | O=C(c1ccc(Cl)s1)c1nc(C(F)(F)F)nc2ccsc12 [Example 12, 5-Chloro-2-thienyl 2-trifluoromethylthieno[3,2-d]pyrimidin-4-ylmethanone] |
| 21 | 134.8 to 135.6 °C | CC(C)Nc1nc(C(=O)c2cccs2)c2sccc2n1 [Example 61, 2-Isopropylaminothieno[3,2-d]pyrimidin-4-yl 2-thienylmethanone] |
| 21 | 135.6 to 135.9 °C | COCCNc1nc(C(=O)c2cccs2)c2sccc2n1 [Example 65, 2-(2-Methoxyethylamino)thieno[3,2-d]pyrimidin-4-yl 2-thienylmethanone] |
| 18 | 142.1 to 142.9 °C | C=CCNc1nc(C(=O)c2cccs2)c2sccc2n1 [Example 59, 2-Allylaminothieno[3,2-d]pyrimidin-4-yl 2-thienylmethanone] |
| 8 | 143.3 to 143.7 °C | CCOC(=O)CCCNc1nc(C(=O)c2cccs2)c2sccc2n1 [Example 76, Ethyl 4-(4-(2-thienylcarbonyl)thieno[3,2-d]pyrimidin-2-ylamino)butanoate] |
| 7 |  | C[C@@H](CO)Nc1nc(C(=O)c2cccs2)c2sccc2n1 [Example 101, (2S)-2-(1-Hydroxy-2-propylamino)thieno[3,2-d]pyrimidin-4-yl 2-thienylmethanone] |
| 7 |  | O=C(c1cccs1)c1nc(NCCNC(=O)C2CCCCC2)nc2ccsc12 [Example 151, N-(2-(4-(2-Thienylcarbonyl)thieno[3,2-d]pyrimidin-2-yl)aminoethyl)cyclohexylcarboxamide] |
| 4 |  | CC(C)CC(=O)NCCNc1nc(C(=O)c2cccs2)c2sccc2n1 [Example 150, 3-Methyl-N-(2-(4-(2-thienylcarbonyl)thieno[3,2-d]pyrimidin-2-yl)aminoethyl)butanamide] |
| 2 |  | C[C@H](CO)Nc1nc(C(=O)c2cccs2)c2sccc2n1 [Example 102, (2R)-2-(1-Hydroxy-2-propylamino)thieno[3,2-d]pyrimidin-4-yl 2-thienylmethanone] |
| 2 |  | O=C(c1cccs1)c1nc(NCCCn2ccnc2)nc2ccsc12 [Example 104, 2-(3-(1H-Imidazol-1-yl)propylamino)thieno[3,2-d]pyrimidin-4-yl 2-thienylmethanone] |
